# Patent US9012492B2, “Apocynin-lipoic acid conjugates and uses thereof” (priority 2011, dated 2015)
# Legend:
# [1] = system: markers of oxidative stress (SOD1, SOD2, GSH, GSSG, H2O2, HNE-His adducts, DNA fragmentation); assay: Markers of oxidative stress in ischemic cortex following I/R; type: in vivo, rat
# Description: To examine the effect of the compound of Formula (Ia) on various markers of oxidative stress throughout the 5.5 h of reperfusion, injections of the optimal dose of the compound of Formula (Ia) (0.1 mg/kg; 1 ml/kg iv; n=5 per group at each time point) or vehicle (25% EtOH; 1 ml/kg iv; n=5 per group at each time point) were made 30 min prior to the onset of MCAO. The sutures were left in place for 30 min. Brains were removed, and cortical tissue was collected at the end of the 30 min of occlusion (no reperfusion), or following 30 min, 1, 2, 4, or 5.5 h of reperfusion. At the end of each time point, animals were perfused transcardially with 200 ml of 100 mM PBS (pH 7.4), and the brains were removed. The ipsilateral cerebral cortex was isolated, and an 8-mm diameter biopsy punch was used to obtain tissue from the ischemic core. The tissue was weighed and homogenized (40% wt/vol) in ice-cold PBS. Aliquots of whole homogenate were frozen at −80° C. immediately for measurements of hydrogen peroxide (H2O2). The remaining sample was diluted 1:2 with ice-cold PBS and centrifuged at 12,000 g for 15 min at 4° C. Aliquots of the supernatant were stored at −80° C. until assayed for protein levels, superoxide dismutase (SOD1 and SOD2) activity, 4-hydroxynonenal-histodine (HNE-His) adducts (OxiSelect Kits, Cell Biolabs, San Diego, Calif.), reduced glutathione (GSH), oxidized glutathione (GSSG; Cayman Chemical, Ann Arbor Mich.), and cytoplasmic enrichment of DNA fragments (apoptosis) (Roche Diagnostics, Montreal, QC, Canada) using selective assay kits according to manufacturer's specifications.
# Sprague-Dawley rats = assay: Infarct volume after transient middle cerebral artery occlusion, ischemia/reperfusion (I/R); type: in vivo, rat
# Description: Sprague-Dawley rats were used to study the effects of (Ia) on reperfusion injury following stroke in a rodent model. The rats were anesthetized, and injected with (la) (0.01-0.1 mg/kg). After 30 minutes, occlusion of the middle cerebral artery (MCA) was performed.
# The detailed methodology for permanent middle cerebral artery occlusion (MCAO) and transient (I/R) occlusion of the middle cerebral artery has been published previously.^46 Briefly, animals were placed in a David Kopf stereotaxic frame (Tujunga, Calif.), and the right middle cerebral artery (MCA) approached through a rostral-caudal incision of the skin and frontalis muscle at the approximate level of bregma. Blood flow through the MCA was impeded by the placement of surgical suture behind the MCA at three designated positions along the exposed vessel. The sutures were positioned so that the middle of each suture applied pressure to the underside of the MCA and impeded blood flow as confirmed using laser Doppler flowmetry (OxyFlo, Oxford-Optronix, Oxford, UK; Ref. 46). This three-point placement of surgical sutures produced a highly reproducible and consistent focal ischemic lesion (permanent ischemia) restricted to the prefrontal cerebral cortex. For transient I/R, the sutures were left in place for 30 min and then removed (reperfusion) to allow blood flow to return to the area for an additional 5.5 h (209 rats received I/R). In 12 rats, sutures were left in place for 6 h as a model of permanent ischemia.
# To examine the effect of the compound of Formula (Ia) on I/R-induced cell death, injections of the compound of Formula (Ia) (0.01, 0.05, 0.1, or 0.5 mg/kg; 1 ml/kg iv; n=4 per group) or vehicle (25% EtOH; 1 ml/kg iv; n=6) were made 30 min prior to the onset of MCAO. The sutures were left in place for 30 min and removed. Reperfusion was allowed for 5.5 h, and the experiment was terminated.
# To determine whether the compound of Formula (Ia) was neuroprotective when administered during the 30-min period of occlusion, injections of the compound of Formula (Ia) at a dose that produced optimal neuroprotection based on the dose-response-curve described above (0.1 mg/kg; 1 ml/kg iv; n=4) or vehicle (25% EtOH; 1 mi/kg iv; n=4) were made 15 min following the onset of MCAO. After a further 15 min, the sutures were removed to allow for an additional 5.5 h of reperfusion.
# To examine the effect of the compound of Formula (Ia) on reperfusion injury alone, injections of the optimal dose of the compound of Formula (Ia) (0.1 mg/kg; 1 ml/kg iv; n=4 per group) or vehicle (1 ml/kg iv; n=4 or 5 per group) were made following 30 min of MCAO, immediately prior to the removal of the sutures, or 30, 60, 90, 120, or 180 min following suture removal (start of reperfusion). In all cases, the experiments were terminated following 5.5 h of reperfusion.
# To determine whether the compound of Formula (Ia) required bioactivation and/or metabolism to an active intermediate to produce neuroprotection, the effect of direct intracortical injections of the compound of Formula (Ia) on infarct volume were investigated in the present model of transient occlusion (I/R). The compound of Formula (Ia) (0.01, 0.1, 0.5, or 1.0 μM in 200 n1; n=4 per group) or the same volume of vehicle (0.0125% EtOH; 200 n1; n=6) was injected into the ipsilateral hemisphere (bregma—0.3 mm, lateral—5.5 mm and depth of—3.0 mm from the dorsal surface of the brain)^47 10 min prior to suture placement followed by 30 min of MCAO and 5.5 h of reperfusion.
# To examine the effect of the compound of Formula (Ia) on the change in infarct volume over the 5.5 h of reperfusion, injections of the optimal dose of the compound of Formula (Ia) (0.1 mg/kg; 1 ml/kg iv; n=4 per group) or vehicle (25% EtOH; 1 ml/kg iv; n=4) were made 30 min prior to the onset of MCAO. The sutures were left in place for 30 min. […]
smiles,measurement,setting,value
COc1cc(C(C)=O)ccc1OC(=O)CCCCC1CCSS1 (stereo not drawn) [compound of Formula (Ia)],mitochondrial SOD2 activity levels vs vehicle,"[1]; 0.1 mg/kg iv 30 min prior to MCAO, 4-h time point",significantly higher
same,oxidized form of GSH (GSSG) vs vehicle,"[1]; 0.1 mg/kg iv 30 min prior to MCAO, after 5.5 h of reperfusion",significantly greater
same,total amount of GSH (oxidized and reduced forms) vs vehicle,"[1]; 0.1 mg/kg iv 30 min prior to MCAO, any time point",No significant differences
same,cytoplasmic SOD1 activity levels vs vehicle,"[1]; 0.1 mg/kg iv 30 min prior to MCAO, any time point during 5.5 h reperfusion",no significant differences
same,level of hydrogen peroxide vs vehicle,"[1]; 0.1 mg/kg iv 30 min prior to MCAO, any time point over 5.5 h reperfusion",not significantly greater
same,DNA fragmentation (apoptotic cell death),"[1]; 0.1 mg/kg iv 30 min prior to MCAO, each time point",No significant changes
same,HNE-His adduct levels vs vehicle,"[1]; 0.1 mg/kg iv 30 min prior to occlusion, following 2 h of reperfusion",significantly attenuated
same,infarct volume after 5.5 h reperfusion vs vehicle,Sprague-Dawley rats; 0.1 mg/kg iv 15 min into 30-min MCAO (15 min prior to reperfusion),significant neuroprotection
same,infarct volume after 5.5 h reperfusion vs vehicle,Sprague-Dawley rats; 0.1 mg/kg iv 30 min following the start of reperfusion,significant decreases in infarct volume
same,infarct volume following I/R vs vehicle,"Sprague-Dawley rats; 0.1 mg/kg iv 30 min prior to MCAO, 30 min MCAO, 5.5 h reperfusion",significant decrease in infarct volume
same,mean infarct volume smaller than the vehicle group,"Sprague-Dawley rats; 0.1 mg/kg iv 30 min prior to MCAO, end of 5.5 h of reperfusion",~53%
same,"mean infarct volume vs vehicle, time course","Sprague-Dawley rats; 0.1 mg/kg iv 30 min prior to MCAO, measured at 4 h",significantly smaller
same,"mean infarct volume vs vehicle, time course","Sprague-Dawley rats; 0.1 mg/kg iv 30 min prior to MCAO, measured at 6 h",significantly smaller
same,infarct volume after 5.5 h reperfusion vs vehicle,Sprague-Dawley rats; 0.1 mg/kg iv 60 min following the start of reperfusion,significant decreases in infarct volume
same,infarct volume after 5.5 h reperfusion vs vehicle,Sprague-Dawley rats; 0.1 mg/kg iv 90 min following the start of reperfusion,significant decreases in infarct volume
same,infarct volume after 5.5 h reperfusion vs vehicle,Sprague-Dawley rats; 0.1 mg/kg iv 120 min following suture removal,did not result in a significant difference in infarct volume
same,infarct volume after 5.5 h reperfusion vs vehicle,Sprague-Dawley rats; 0.1 mg/kg iv 180 min following suture removal,did not result in a significant difference in infarct volume
same,infarct volume after 5.5 h reperfusion vs vehicle,Sprague-Dawley rats; 0.1 mg/kg iv at time 0 (start of reperfusion),significant decreases in infarct volume
same,infarct volume following I/R vs vehicle,"Sprague-Dawley rats; 0.5 mg/kg iv 30 min prior to MCAO, 30 min MCAO, 5.5 h reperfusion",significant decrease in infarct volume
same,neuroprotection (infarct volume) following I/R,"Sprague-Dawley rats; 0.01, 0.05, 0.1, 0.5 mg/kg iv 30 min prior to MCAO, 30 min MCAO, 5.5 h reperfusion",dose-dependent neuroprotection
same,stroke infarct volume,"Sprague-Dawley rats; Example 3, 0.01-0.1 mg/kg injected 30 minutes before MCA occlusion, vs ethanol vehicle",dose-dependent reduction in stroke infarct volume
same,dose required to produce significant neuroprotection,"Sprague-Dawley rats; I/R model, iv",0.1 mg/kg
same,infarct volume following I/R vs vehicle,Sprague-Dawley rats; direct intracortical preinjection 1.0 μM (200 nl) 10 min pre-MCAO,significant decrease in infarct volume
same,"latest administration time giving significant neuroprotection, following the start of reperfusion",Sprague-Dawley rats; optimal dose (0.1 mg/kg iv),up to 90 min
